Tests used:
[1] = tested on: E. coli UTI 89; assay: Mouse urinary tract infection model, E. coli UTI 89; assay type: in vivo; conditions: for Bladder Terminal Burden / Kidney Terminal Burden / Urine Terminal Burden: mice, 96 h post infection
Protocol: (§1) Compound A and its prodrugs as disclosed herein were tested in an in vivo mouse model for Urinary Tract Infection. Briefly, mice were infected with E. coli UTI 89 to cause a UTI infection and were treated with compounds disclosed herein.
(§2) Five days prior to infection, C3H/HeNR female mice were preconditioned with drinking water containing 5% glucose. Mice were rendered unconscious using parenteral anaesthesia (ketamine/medetomidine) then 0.05 mL of a bacterial suspension of E. coli UTI 89 (1.2×10^9 CFU/mL (6.2×10^7 CFU/mouse) was administered transurethrally into the bladder to cause an ascending UTI infection.
IV or PO treatment was started 24 h post infection with 3, 10, 15 mg/kg/dose IV Compound A; 3, 10, 15.30 mg/kg/dose IV Compound 1; 3, and 10 mg/kg/dose IV Compound 2; and 30 mg/kg/dose oral of either Compound 1 or 2 administered every 12 hours for 3 days (six doses total). Ciprofloxacin was given as a control at 10 mg/kg/dose IV every 12 hours. Compound A was formulated in 10% DMSO, 5% Cremophor, 85% SFI; the remaining compounds used a sterile phosphate-buffered saline (PBS) formulation. Each group was comprised of five mice each.
(§3) Urine, bladder, and kidney were harvested at 24 h (pre-treatment group only) and 96 h post infection and quantitatively cultured.

[2] = tested on: E. coli; assay: MIC against gram-negative bacterial cell lines (E. coli); assay type: cell-based; conditions: Escherichia coli
[3] = tested on: K. pneumoniae BAA-1705; assay: Mouse urinary tract infection model, K. pneumoniae BAA-1705; assay type: in vivo; conditions: for Bladder Terminal Burden / Kidney Terminal Burden / Urine Terminal Burden: mice, 96 hours
Protocol: as §1, §2
[…]; […]; […]; […] for 3 days (six doses total). Ciprofloxacin was given as a control at 10 mg/kg/dose IV every 12 hours. Compound A was formulated in 10% DMSO, 5% Cremophor, 85% SFI; the remaining compounds used a sterile phosphate-buffered saline (PBS) formulation. Each group was comprised of five mice each.
as §3
The experiment was repeated using K. pneumoniae BAA-1705 (MDR; MIC90 strain). Table 5 and FIG. 2 summarize the results, showing the average terminal burden of K. pneumoniae BAA-1705 in urine, bladder, and kidney at the conclusion of the study (96 hours).

[4] = Thermal solubility; assay type: physicochemical; conditions: aqueous buffer, thermodynamic from solid; 100 mM potassium phosphate buffer pH 7.4, 24 h, 25° C.
Protocol: Solubility of the compounds was assessed in 100 mM potassium phosphate buffer at pH 7.4 after 24 hours at room temperature.
Accurately weighed K2HPO4 (2.79 g) and KH2PO4 (0.54 g) were dissolved in 90 mL of Milli-Q water and mixed well. Volume was made upto 200 mL with Milli-Q water and mixed well. The prepared phosphate buffer was stored at 2-8° C. and used within a month.
Approximately 30 mg of test compound was added to approximately 1 mL of the potassium phosphate buffer, pH 7.4. If the visual inspection indicated precipitation, no further compound is added. If the visual inspection indicated a clear solution, further increments of compound were added until the solution was no longer clear.
Test compounds and assay controls (caffeine) were further incubated for 24 h at 25° C. temperature on a thermomixer at a shaking speed of 1200 rpm. After incubation, the samples (200 μL) were transferred to a filtration plate to which a plate was attached at bottom for collecting the filtrate. The plate was centrifuged at 4000 rpm for 2 min and the filtrate was collected in the attached bottom plate. The filtrates were diluted using filtered buffer based on the initial amount of compound added. All samples were analysed by HPLC-UV method against 8 point calibration curve with concentrations ranging from 2.5 μg/mL to 1000 μg/mL.

[5] = tested on: S. aureus; assay: Inhibition of gram-positive bacterial cell lines; assay type: cell-based
[6] = Solubility under physiological conditions; assay type: physicochemical; conditions: for example at pH 7.4
[7] = tested on: K. pneumoniae; assay: MIC against gram-negative bacterial cell lines (K. pneumoniae); assay type: cell-based; conditions: Klebsiella pneumoniae
[8] = 3 mg/kg/dose IV every 12 hours for 3 days
[9] = 10 mg/kg/dose IV every 12 hours for 3 days
[10] = 15 mg/kg/dose IV every 12 hours for 3 days
[11] = E. coli UTI 89, mice, IV administration

N#CC1CN(C[C@@H](Cc2nc[nH]c(=O)c2O)c2ccc(C#Cc3ccc(CN4CCOCC4)cc3)cc2)C1 [Compound A, (S)-1-(3-(5-hydroxy-6-oxo-1,6-dihydropyrimidin-4-yl)-2-(4-((4-(morpholinomethyl)phenyl)ethynyl)phenyl)propyl)azetidine-3-carbonitrile]
Bladder Terminal Burden [1, 8]: 2.57 × 10^5 CFU/mL
Kidney Terminal Burden [1, 8]: 3.72 × 10^3 CFU/mL
Urine Terminal Burden [1, 8]: 3.03 × 10^5 CFU/mL
Bladder Terminal Burden [1, 9]: 3.48 × 10^5 CFU/mL
Kidney Terminal Burden [1, 9]: 4.44 × 10^2 CFU/mL
Urine Terminal Burden [1, 9]: 6.26 × 10^4 CFU/mL
Bladder Terminal Burden [1, 10]: 2.62 × 10^5 CFU/mL
Kidney Terminal Burden [1, 10]: 1.21 × 10^2 CFU/mL
Urine Terminal Burden [1, 10]: 3.78 × 10^3 CFU/mL
bacterial burden in urine relative to vehicle-treated controls ([1]; E. coli UTI 89, mice): statistically significant reductions in bacterial burden in urine
bacterial burden in bladder relative to vehicle-treated controls [1, 11]: reductions in bacterial burden in bladder
bacterial burden in kidney relative to vehicle-treated control [1, 11]: statistically significant reductions in bacterial burden in kidney
MIC [2]: < 1 µg/mL
Bladder Terminal Burden ([3]; 10 mg/kg/dose IV): 9.29 × 10^1 CFU/mL
Kidney Terminal Burden ([3]; 10 mg/kg/dose IV): 3.47 × 10^2 CFU/mL
Urine Terminal Burden ([3]; 10 mg/kg/dose IV): 2.72 × 10^0 CFU/mL
Bladder Terminal Burden ([3]; 30 mg/kg/dose IV): BLoD
Kidney Terminal Burden ([3]; 30 mg/kg/dose IV): 7.48 × 10^1 CFU/mL
Urine Terminal Burden ([3]; 30 mg/kg/dose IV): 7.41 × 10^3 CFU/mL
Bladder Terminal Burden ([3]; 60 mg/kg/dose IV): BLoD
Kidney Terminal Burden ([3]; 60 mg/kg/dose IV): 3.17 × 10^0 CFU/mL
Urine Terminal Burden ([3]; 60 mg/kg/dose IV): BLoD
Bladder Terminal Burden ([3]; 90 mg/kg/dose PO): BLoD
Kidney Terminal Burden ([3]; 90 mg/kg/dose PO): 3.01 × 10^1 CFU/mL
Urine Terminal Burden ([3]; 90 mg/kg/dose PO): 7.06 × 10^0 CFU/mL
bacterial burden in kidney relative to vehicle-treated controls and the ciprofloxacin control ([3]; K. pneumoniae BAA-1705, mice): statistically significant reductions in bacterial burden in kidney
bacterial burden in urine relative to vehicle-treated controls and the ciprofloxacin control ([3]; K. pneumoniae BAA-1705, mice, except for the 30 mg/kg IV Compound A experiment): statistically significant reductions in bacterial burden in urine
solubility at 24 h [4]: < 50 µg/mL
inhibition of gram-positive bacterial cell lines [5]: does not inhibit
solubility [6]: < 1000 µg/mL
MIC [7]: < 1 µg/mL
